Measurements reported in patent US9809623B2, “α4β7 peptide monomer and dimer antagonists” (Protagonist Therapeutics, Inc., priority 2014, dated 2017).
Where two headings read alike, the source gives them in different places. Numbered stars: 1 amine (or outer) side, 2 acyl side, 3 side chain; on linkers, the order of the positions; unused ones are H or OH. Bridge positions count the residues as written; N and C are the ends. Square brackets hold non-standard residues; d marks the D form. Peptide text beside a SMILES is read from it. I, II: the chains in the order shown. Phe(4-COOH) = N[C@@H](Cc1ccc(C(=O)O)cc1)C(=O)O; Phe(4-tBu) = CC(C)(C)c1ccc(C[C@H](N)C(=O)O)cc1; Bip = N[C@@H](Cc1ccc(-c2ccccc2)cc1)C(=O)O; 1Nal = N[C@@H](Cc1cccc2ccccc12)C(=O)O; Diglycolyl = O=C(COCC(=O)[*:2])[*:1]; NMeR = CN[C@@H](CCCNC(=N)N)C(=O)O; β3hE = N[C@@H](CCC(=O)O)CC(=O)O; NMeK = CN[C@@H](CCCCN)C(=O)O; Pen = CC(C)(S)[C@H](N)C(=O)O; dNMeK = CN[C@H](CCCCN)C(=O)O

Test: Simulated Intestinal Fluid (SIF) Stability Assay
Type: in vitro ADME, porcine
Settings: pig, simulated intestinal fluid (SIF) with 1% porcine pancreatin, pH 6.5, Table 3-B
How it was run: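 Peptides (22 μM final) incubated at 37 °C in FASSIF (pH 6.5) with 1% porcine pancreatin; aliquots quenched at various times and analyzed by LC-MS/MS against internal standard. Half-life from first-order exponential decay fit of percent remaining.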

[1] = > means experiment was stopped at that time and half life was not reached, read-out: Stabilty SIF t1/2
[2] = alone or in parentheses after >360, read-out: Stabilty SIF t1/2, in hr (converted)

| Structure (SMILES) | half-life at 22 μM [1] [h] | half-life at 22 μM [2] [h] |
| --- | --- | --- |
| CC(=O)N[C@@H]1C(=O)N(C)[C@@H](CCCNC(=N)N)C(=O)N[C@@H](CO)C(=O)N[C@@H](CC(=O)O)C(=O)N[C@@H]([C@@H](C)O)C(=O)N[C@@H](CC(C)C)C(=O)N[C@H](C(=O)N[C@@H](Cc2ccc(C(C)(C)C)cc2)C(=O)N[C@@H](CCC(=O)O)CC(=O)N(C)[C@@H](CCCCNC(=O)COCC(=O)NCCCC[C@@H](C(N)=O)N(C)C(=O)C[C@H](CCC(=O)O)NC(=O)[C@H](Cc2ccc(C(C)(C)C)cc2)NC(=O)[C@H]2NC(=O)[C@H](CC(C)C)NC(=O)[C@H]([C@@H](C)O)NC(=O)[C@H](CC(=O)O)NC(=O)[C@H](CO)NC(=O)[C@H](CCCNC(=N)N)N(C)C(=O)[C@@H](NC(C)=O)C(C)(C)SSC2(C)C)C(N)=O)C(C)(C)SSC1(C)C [compound 149] (I: Ac-[Pen][NMeR]SDTL[Pen][Phe(4-tBu)][β3hE][NMeK]-NH2 / II: Ac-[Pen][NMeR]SDTL[Pen][Phe(4-tBu)][β3hE][NMeK]-NH2; disulfide I:1-I:7, II:1-II:7; linker I:10-II:10 via Diglycolyl) | > 5 |  |
| CC(=O)N[C@@H]1C(=O)N(C)[C@@H](CCCNC(=N)N)C(=O)N[C@@H](CO)C(=O)N[C@@H](CC(=O)O)C(=O)N[C@@H]([C@@H](C)O)C(=O)N[C@@H](CC(C)C)C(=O)N[C@H](C(=O)N[C@@H](Cc2ccc(C(=O)O)cc2)C(=O)N[C@@H](CCC(=O)O)C(=O)N(C)[C@@H](CCCCNC(=O)COCC(=O)NCCCC[C@@H](C(N)=O)N(C)C(=O)[C@H](CCC(=O)O)NC(=O)[C@H](Cc2ccc(C(=O)O)cc2)NC(=O)[C@H]2NC(=O)[C@H](CC(C)C)NC(=O)[C@H]([C@@H](C)O)NC(=O)[C@H](CC(=O)O)NC(=O)[C@H](CO)NC(=O)[C@H](CCCNC(=N)N)N(C)C(=O)[C@@H](NC(C)=O)C(C)(C)SSC2(C)C)C(N)=O)C(C)(C)SSC1(C)C [compound 147] (I: Ac-[Pen][NMeR]SDTL[Pen][Phe(4-COOH)]E[NMeK]-NH2 / II: Ac-[Pen][NMeR]SDTL[Pen][Phe(4-COOH)]E[NMeK]-NH2; disulfide I:1-I:7, II:1-II:7; linker I:10-II:10 via Diglycolyl) | > 5 |  |
| CC(=O)N[C@@H]1C(=O)N(C)[C@@H](CCCNC(=N)N)C(=O)N[C@@H](CO)C(=O)N[C@@H](CC(=O)O)C(=O)N[C@@H]([C@@H](C)O)C(=O)N[C@@H](CC(C)C)C(=O)N[C@H](C(=O)N[C@@H](Cc2ccc(-c3ccccc3)cc2)C(=O)N[C@@H](CCC(=O)O)CC(=O)N(C)[C@@H](CCCCNC(=O)COCC(=O)NCCCC[C@@H](C(N)=O)N(C)C(=O)C[C@H](CCC(=O)O)NC(=O)[C@H](Cc2ccc(-c3ccccc3)cc2)NC(=O)[C@H]2NC(=O)[C@H](CC(C)C)NC(=O)[C@H]([C@@H](C)O)NC(=O)[C@H](CC(=O)O)NC(=O)[C@H](CO)NC(=O)[C@H](CCCNC(=N)N)N(C)C(=O)[C@@H](NC(C)=O)C(C)(C)SSC2(C)C)C(N)=O)C(C)(C)SSC1(C)C [compound 150] (I: Ac-[Pen][NMeR]SDTL[Pen][Bip][β3hE][NMeK]-NH2 / II: Ac-[Pen][NMeR]SDTL[Pen][Bip][β3hE][NMeK]-NH2; disulfide I:1-I:7, II:1-II:7; linker I:10-II:10 via Diglycolyl) | > 5 |  |
| CC(=O)N[C@@H]1C(=O)N(C)[C@@H](CCCNC(=N)N)C(=O)N[C@@H](CO)C(=O)N[C@@H](CC(=O)O)C(=O)N[C@@H]([C@@H](C)O)C(=O)N[C@@H](CC(C)C)C(=O)N[C@H](C(=O)N[C@@H](Cc2ccc(C(C)(C)C)cc2)C(=O)N[C@@H](CCC(=O)O)CC(=O)N[C@H](CCCCN)C(N)=O)C(C)(C)SSC1(C)C [compound 153] (Ac-[Pen][NMeR]SDTL[Pen][Phe(4-tBu)][β3hE][dK]-NH2; disulfide 1-7) |  | 13.6 |
| CC(=O)N[C@@H]1C(=O)N(C)[C@@H](CCCNC(=N)N)C(=O)N[C@@H](CO)C(=O)N[C@@H](CC(=O)O)C(=O)N[C@@H]([C@@H](C)O)C(=O)N[C@@H](CC(C)C)C(=O)N[C@H](C(=O)N[C@@H](Cc2cccc3ccccc23)C(=O)N[C@@H](CCC(=O)O)C(=O)N(C)[C@H](CCCCNC(=O)COCC(=O)NCCCC[C@H](C(N)=O)N(C)C(=O)[C@H](CCC(=O)O)NC(=O)[C@H](Cc2cccc3ccccc23)NC(=O)[C@H]2NC(=O)[C@H](CC(C)C)NC(=O)[C@H]([C@@H](C)O)NC(=O)[C@H](CC(=O)O)NC(=O)[C@H](CO)NC(=O)[C@H](CCCNC(=N)N)N(C)C(=O)[C@@H](NC(C)=O)C(C)(C)SSC2(C)C)C(N)=O)C(C)(C)SSC1(C)C [compound 44] (I: Ac-[Pen][NMeR]SDTL[Pen][1Nal]E[dNMeK]-NH2 / II: Ac-[Pen][NMeR]SDTL[Pen][1Nal]E[dNMeK]-NH2; disulfide I:1-I:7, II:1-II:7; linker I:10-II:10 via Diglycolyl) | > 3 |  |
| CC(=O)N[C@@H]1C(=O)N(C)[C@@H](CCCNC(=N)N)C(=O)N[C@@H](CO)C(=O)N[C@@H](CC(=O)O)C(=O)N[C@@H]([C@@H](C)O)C(=O)N[C@@H](CC(C)C)C(=O)N[C@H](C(=O)N[C@@H](Cc2ccc(C(=O)O)cc2)C(=O)N[C@@H](CCC(=O)O)CC(=O)N[C@H](CCCCNC(=O)COCC(=O)NCCCC[C@@H](NC(=O)C[C@H](CCC(=O)O)NC(=O)[C@H](Cc2ccc(C(=O)O)cc2)NC(=O)[C@H]2NC(=O)[C@H](CC(C)C)NC(=O)[C@H]([C@@H](C)O)NC(=O)[C@H](CC(=O)O)NC(=O)[C@H](CO)NC(=O)[C@H](CCCNC(=N)N)N(C)C(=O)[C@@H](NC(C)=O)C(C)(C)SSC2(C)C)C(N)=O)C(N)=O)C(C)(C)SSC1(C)C [compound 130] (I: Ac-[Pen][NMeR]SDTL[Pen][Phe(4-COOH)][β3hE][dK]-NH2 / II: Ac-[Pen][NMeR]SDTL[Pen][Phe(4-COOH)][β3hE][dK]-NH2; disulfide I:1-I:7, II:1-II:7; linker I:10-II:10 via Diglycolyl) | > 6 | 16 |
| CC(=O)N[C@@H]1C(=O)N(C)[C@@H](CCCNC(=N)N)C(=O)N[C@@H](CO)C(=O)N[C@@H](CC(=O)O)C(=O)N[C@@H]([C@@H](C)O)C(=O)N[C@@H](CC(C)C)C(=O)N[C@H](C(=O)N[C@@H](Cc2ccc(C(=O)O)cc2)C(=O)N[C@@H](CCC(=O)O)C(=O)N[C@H](CCCCNC(=O)COCC(=O)NCCCC[C@@H](NC(=O)[C@H](CCC(=O)O)NC(=O)[C@H](Cc2ccc(C(=O)O)cc2)NC(=O)[C@H]2NC(=O)[C@H](CC(C)C)NC(=O)[C@H]([C@@H](C)O)NC(=O)[C@H](CC(=O)O)NC(=O)[C@H](CO)NC(=O)[C@H](CCCNC(=N)N)N(C)C(=O)[C@@H](NC(C)=O)C(C)(C)SSC2(C)C)C(N)=O)C(N)=O)C(C)(C)SSC1(C)C [compound 129] (I: Ac-[Pen][NMeR]SDTL[Pen][Phe(4-COOH)]E[dK]-NH2 / II: Ac-[Pen][NMeR]SDTL[Pen][Phe(4-COOH)]E[dK]-NH2; disulfide I:1-I:7, II:1-II:7; linker I:10-II:10 via Diglycolyl) | > 6 | 13 |
| CC(=O)N[C@@H]1C(=O)N(C)[C@@H](CCCNC(=N)N)C(=O)N[C@@H](CO)C(=O)N[C@@H](CC(=O)O)C(=O)N[C@@H]([C@@H](C)O)C(=O)N[C@@H](CC(C)C)C(=O)N[C@H](C(=O)N[C@@H](Cc2ccc(C(C)(C)C)cc2)C(=O)N[C@@H](CCC(=O)O)CC(=O)O)C(C)(C)SSC1(C)C [compound 152] (Ac-[Pen][NMeR]SDTL[Pen][Phe(4-tBu)][β3hE]-OH; disulfide 1-7) | 2.45 |  |
| CC(=O)N[C@@H]1C(=O)N(C)[C@@H](CCCNC(=N)N)C(=O)N[C@@H](CO)C(=O)N[C@@H](CC(=O)O)C(=O)N[C@@H]([C@@H](C)O)C(=O)N[C@@H](CC(C)C)C(=O)N[C@H](C(=O)N[C@@H](Cc2ccc(C(=O)O)cc2)C(=O)N[C@@H](CCC(=O)O)CC(=O)N(C)[C@@H](CCCCNC(=O)COCC(=O)NCCCC[C@@H](C(N)=O)N(C)C(=O)C[C@H](CCC(=O)O)NC(=O)[C@H](Cc2ccc(C(=O)O)cc2)NC(=O)[C@H]2NC(=O)[C@H](CC(C)C)NC(=O)[C@H]([C@@H](C)O)NC(=O)[C@H](CC(=O)O)NC(=O)[C@H](CO)NC(=O)[C@H](CCCNC(=N)N)N(C)C(=O)[C@@H](NC(C)=O)C(C)(C)SSC2(C)C)C(N)=O)C(C)(C)SSC1(C)C [compound 148] (I: Ac-[Pen][NMeR]SDTL[Pen][Phe(4-COOH)][β3hE][NMeK]-NH2 / II: Ac-[Pen][NMeR]SDTL[Pen][Phe(4-COOH)][β3hE][NMeK]-NH2; disulfide I:1-I:7, II:1-II:7; linker I:10-II:10 via Diglycolyl) | > 5 |  |
